According to patent US20130197073A1, “HYPOCHOLESTEROLEMIC, ANTI-INFLAMMATORY AND ANTIEPILEPTIC NEUROPROTECTIVE COMPOUND” (NEURON BIOPHARMA, S.A., priority 2010, published 2013):

Tests used:
[1] = test system: promoter of a gene that could be modulated by oxidative stress bound to the firefly luciferase reporter gene; assay: Oxidative stress of the brain induced by kainate in luciferase reporter mice, in vivo bioluminescence; conditions: 50 mg/kg i.p. at 24 and 0.5 hours before KA 25 mg/kg and daily; 1 to 4 dpi
Experimental: (§1) All the animals included during the experimental process were 12-week old males from the FVB/N strain who were carriers of a gene construct with the promoter of a gene that could be modulated by oxidative stress bound to the firefly luciferase reporter gene. The experiments were carried out strictly complying with the standard entitled Guidance on the Operation of Animals (Scientific Procedures, Act. 1986). The animals were subjected to their respective quarantine period and were treated with maximum precaution to minimize possible contaminations during inoculations and handling.
The animals were intraperitoneally inoculated with 25 mg/kg of kainate (KA) dissolved in PBS. Seven mice were pretreated at 24 and 0.5 hours before inoculation with KA and subsequently on a daily basis up to 7 days post-inoculation by means of intraperitoneal injection with 0.25% methyl cellulose in PBS as a vehicle (vehicle+KA administration regimen), and another 7 mice were pretreated at 24 and 0.5 hours before inoculation with KA and subsequently on a daily basis up to 7 days post-inoculation by means of intraperitoneal injection with compound NST0060 at a dose of 50 mg/kg (NST0060+KA administration regimen). […] Oxidative stress in the brain was monitored by means of the in vivo bioluminescence technique with the IVIS Lumina system (Caliper LS). […]

[2] = test system: human neuroblastoma SK-N-MC cells; assay: Protection against neuronal death induced by 3-nitropropionic acid (inhibition of succinate dehydrogenase), WST-1; format: cell-based; conditions: NST0060 at 40 μM; 30 μM 3-NP, 22 hours; significant in the range of 4 to 40 μM
Experimental: (§2) The assay was performed on human neuroblastoma SK-N-MC cells in culture, maintained as described in section 2.1.
The inhibition caused by compound NST0060 with respect to cell death caused by treatment with 3-nitropropionic (3-NP) acid was analyzed. 3-NP is an irreversible inhibitor of the succinate dehydrogenase enzyme which in animal models causes oxidative stress and apoptotic cell death in the striatum and mimics neurochemical and anatomical changes associated with Huntington's disease (HD). These cells, not exceeding 15 passages, were seeded on 96-well plates treated for adherent cells with a cell concentration of 5×10^4 cells/well; 3 wells of the plate were seeded for each assay condition.
(§3) After 24 hours of cell incubation (at 37° C. and 5% CO2), the cell treatments were performed with 100 μl of total volume for the following conditions: • Control: culture medium (medium) • 3-Nitropropionic (3-NP): medium plus 30 μM 3-NP, causing death of 50% of the cells. • 3-NP plus NST0060: medium plus 3-NP (30 μM) plus NST0060 at 1, 4, 10, 40 or 100 μM.
(§4) The cells were incubated (at 37° C. and 5% CO2) with these treatments for 22 hours, after which time WST-1 reagent (Roche) was added. The WST-1 test is based on the measurement of metabolic activity (method described in section 2.1).

[3] = test system: human neuroblastoma SK-N-MC cells; assay: Protection against neuronal death induced by okadaic acid (inhibition of protein phosphatase-1), WST-1; format: cell-based; conditions: NST0060 at 10 μM; 20 nM OA, 22 hours; significant with 4 and 10 μM
Experimental: as §2
The inhibition caused by compound NST0060 with respect to cell death caused by treatment with okadaic acid (OA) which inhibits the activity of protein phosphatase-1 (PP1) was analyzed. OA is one of the most widely used drugs for studying the phosphorylation mechanism of the tau protein, involved in the pathogenesis and progression of AD. Inhibition of PP1 causes cytoskeleton alterations and mitochondrial damage. These cells, not exceeding 15 passages, were seeded on 96-well plates treated for adherent cells with a cell concentration of 5×10^4 cells/well; 3 wells of the plate were seeded for each assay condition.
as §3, with “Okadaic acid (OA):” for “3-Nitropropionic (3-NP):”, “20 nM OA,” for “30 μM 3-NP,”, “OA” for “3-NP”, “OA (20 nM)” for “3-NP (30 μM)”
as §4

in vitro = conditions: PAMPA, pH 7.4
Excerpt: To that end, the BBB was mimicked in an in vitro system that allowed evaluating the compound without using cells, and where the so-called PAMPA (Parallel Artificial Membrane Permeation Assay) was used, using a sandwich system considering the crossing of compounds by means of passive diffusion.
A mixture of marketed lipids derived from pig brain with a phospholipid composition very similar to that which forms the barrier and known as PBL (Porcine Polar Brain Lipid) was used to mimic the blood-brain barrier. This compound was stored at −20° C. dissolved in dodecane at 100 μg/ml in glass vials.
To that end, a 1/100 dilution of the compounds was performed, being the DMSO content in all cases 1%.
Five microliters of PBL at 20 μg/ml prepared from the frozen stock at 100 μg/mL were added in a 96-well filter plate, with a PVDF membrane and a pore size of 45 μm (MAIPN4550, Millipore). After 2 minutes, 300 μl of the phosphate buffer used to dilute the compounds were added. […] After that time, 100 μl from the wells of the donor plates and acceptor plates were transferred to a special 96-well plate for UV reading. […] The percentage of barrier crossing as well as the effective permeability (Pe) were calculated from the spectrophotometric data. […]
[Drug]acceptor=Absorbance of the acceptor well
[Drug]equilibrium=Absorbance of the mean of the basal wells/2 […]

[4] = test system: zebrafish (Danio rerio, AB strain) embryos; assay: Zebrafish embryo acute toxicity, percentage of healthy larvae; conditions: mean±SD
FVB/NHan mice = assay: Death caused by acute administration of kainate in mice, survival; format: in vivo; conditions: 50 mg/kg i.p. at 24 and 0.5 hours before KA 25 mg/kg and daily up to 7 days; p<0.05
Experimental: as §1, with “FVB/NHan strain.” for “FVB/N strain who were carriers of a gene construct with the promoter of a gene that could be modulated by oxidative stress bound to the firefly luciferase reporter gene.”
The animals were intraperitoneally inoculated with 25 mg/kg of kainate (KA) dissolved in PBS. Fourteen animals were pretreated at 24 and 0.5 hours before inoculation with KA and subsequently on a daily basis up to 7 days post-inoculation by means of intraperitoneal injection with 0.25% methyl cellulose in PBS as a vehicle (vehicle+KA administration regimen) and 14 were pretreated at 24 and 0.5 hours before inoculation with KA and subsequently on a daily basis up to 7 days post-inoculation by means of intraperitoneal injection with compound NST0060 at a dose of 50 mg/kg (NST0060+KA administration regimen). After inoculation, the animals were individually housed in trays to monitor them.

CCCC(CCC)C(=O)O[C@H]1C[C@@H](C)C=C2C=C[C@H](C)[C@H](CC[C@@H]3C[C@@H](O)CC(=O)O3)[C@H]21 [NST0060, 2-propylpentanoic acid (1S,3R,7S,8S,8aR)-1,2,3,7,8,8a-hexahydro-3,7-dimethyl-8-[2-[(2R,4R)-tetrahydro-4-hydroxy-6-oxo-2H-pyran-2-yl]ethyl]-1-naphthalenyl ester]
expression of gene associated with oxidative stress in the brain (photon emission) [1]: did not show a significant increase in the expression of this gene associated with oxidative stress
protection against cell death caused by 3-NP [2]: 32%
protection against cell death caused by OA [3]: 83%
Papp at 18 h, 100 μM (in vitro): 8.8 ± 1.2 ×10⁻⁶ cm/s
percentage of healthy larvae ([4]; dose of 1 mg/Kg): 100±0.0%
percentage of healthy larvae ([4]; dose of 3 mg/Kg): 86.7±6.2%
mortality caused by KA (FVB/NHan mice): reduces mortality observed in a statistically significant manner
